Patent US11472842B2 (Protagonist Therapeutics, Inc., priority 2015, dated 2022)

Target: T1, human ferroportin (Homo sapiens, UniProt Q9NP59)
T1 construct: expressed in transfected cells
T1 sequence (Q9NP59 1-571): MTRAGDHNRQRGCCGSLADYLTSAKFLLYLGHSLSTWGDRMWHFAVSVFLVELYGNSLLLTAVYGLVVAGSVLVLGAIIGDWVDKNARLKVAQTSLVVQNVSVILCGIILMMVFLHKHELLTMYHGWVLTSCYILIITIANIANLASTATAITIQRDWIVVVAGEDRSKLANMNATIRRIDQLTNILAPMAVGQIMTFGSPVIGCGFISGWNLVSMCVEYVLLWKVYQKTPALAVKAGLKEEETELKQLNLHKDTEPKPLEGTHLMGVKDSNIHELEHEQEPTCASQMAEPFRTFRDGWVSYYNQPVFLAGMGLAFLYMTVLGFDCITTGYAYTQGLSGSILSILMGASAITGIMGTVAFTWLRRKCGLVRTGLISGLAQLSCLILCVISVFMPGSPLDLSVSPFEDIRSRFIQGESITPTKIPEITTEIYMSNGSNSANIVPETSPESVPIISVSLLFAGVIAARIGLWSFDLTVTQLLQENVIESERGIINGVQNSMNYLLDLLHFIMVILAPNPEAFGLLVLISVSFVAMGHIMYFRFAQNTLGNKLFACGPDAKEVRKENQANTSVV
Test: Ferroportin internalization / degradation, HEK-GFP cell based assay (HEK293 cells stably expressing ferroportin-GFP, decrease in GFP fluorescence)
Details: Table 3 monomer analogues; ferroportin-GFP HEK293 cells, 18-24 h incubation; read-out: HEK-GFP cell based assay (potency EC50)
Procedure: Peptide analogues were tested in vitro for induction of internalization of the human ferroportin protein. Following internalization, the […] are degraded. The assay measures a decrease in fluorescence of the receptor.
The cDNA encoding the human ferroportin (SLC40A1) was cloned from a cDNA clone from Origene (NM_014585). The DNA encoding the ferroportin was amplified by PCR using primers also encoding terminal restriction sites for subcloning, but without the termination codon. The ferroportin receptor was subcloned into a mammalian GFP expression vector containing a neomycin (G418) resistance marker in such that the reading frame of the ferroportin was fused in frame with the GFP protein. The fidelity of the DNA encoding the protein was confirmed by DNA sequencing. HEK293 cells were used for transfection of the ferroportin-GFP receptor expression plasmid. The cells were grown according to standard protocol in growth medium and transfected with the plasmids using Lipofectamine (manufacturer's protocol, Invitrogen). […] The cells were propagated and frozen in aliquots.
Compound was added to desired final concentration for at least 18 hours in the incubator. […] Compound was added to desired final concentration for at least 18 hours but no more than 24 hours in the incubator.
The EC50 of these reference compounds for ferroportin degradation was determined according to the activity assay described above. These peptides served as control standards.
These values were determined as described herein.

First: CCCCCCCCCCCCCCCC(=O)N[C@@H](CCC(=O)NCCCC[C@@H]1NC(=O)[C@H](Cc2ccccc2)NC(=O)[C@H](CCCCN)NC(=O)[C@H]([C@@H](C)CC)NC(=O)[C@@H](NC(=O)[C@@H]2CCCN2C(=O)[C@H](Cc2ccccc2)NC(=O)[C@H](Cc2c[nH]cn2)NC(=O)[C@@H](NC(=O)[C@H](CC(=O)O)NC(=O)CC(C)C)[C@@H](C)O)C(C)(C)SSC[C@@H](C(=O)N[C@@H](CCCCN)C(N)=O)NC(=O)CNC(=O)[C@H](CCCCN)NC(=O)[C@H](CO)NC(=O)[C@H](CCCNC(=N)N)NC(=O)[C@@H]2CCCN2C1=O)C(=O)O [Compound 4, Isovaleric acid-DTHFP-[Pen]-IKF-[Lys(IsoGlu-Palm)]-PRSKGCK-NH2]
Second: CCCCCCCCCCCCCCCC(=O)N[C@@H](CCC(=O)NCCCC[C@@H]1NC(=O)[C@H](Cc2ccccc2)NC(=O)[C@H](CCCCN)NC(=O)[C@H]([C@@H](C)CC)NC(=O)[C@@H](NC(=O)[C@@H]2CCCN2C(=O)[C@H](Cc2ccccc2)NC(=O)[C@H](Cc2c[nH]cn2)NC(=O)[C@@H](NC(=O)[C@H](CC(=O)O)NC(=O)CC(C)C)[C@@H](C)O)C(C)(C)SSC(C)(C)[C@@H](C(=O)N[C@@H](CCCCN)C(N)=O)NC(=O)CNC(=O)[C@H](CCCCN)NC(=O)[C@H](CO)NC(=O)[C@H](CCCNC(=N)N)NC(=O)[C@@H]2CCCN2C1=O)C(=O)O [Compound 3, Isovaleric acid-DTHFP-[Pen]-IKF-[Lys(IsoGlu-Palm)]-PRSKG-[Pen]-K-NH2]
The DC50 of the first is 6.1-fold lower: 68 nM for the first, 418 nM for the second.

Compared with `CC[C@H](C)[C@@H]1NC(=O)[C@@H](NC(=O)[C@@H]2CCCN2C(=O)[C@H](Cc2ccccc2)NC(=O)[C@H](Cc2c[nH]cn2)NC(=O)[C@@H](NC(=O)[C@H](CC(=O)O)NC(=O)CC(C)C)[C@@H](C)O)CSSC[C@@H](C(=O)N[C@@H](CCCCN)C(N)=O)NC(=O)CNC(=O)[C@H](CCCCN)NC(=O)[C@H](CO)NC(=O)[C@H](CCCNC(=N)N)NC(=O)[C@@H]2CCCN2C(=O)[C@H](CCCCNC(C)=O)NC(=O)[C@H](Cc2ccccc2)NC(=O)[C@H](CCCCN)NC1=O` [Compound 25], `CC[C@H](C)[C@@H]1NC(=O)[C@@H](NC(=O)[C@@H]2CCCN2C(=O)[C@H](Cc2ccccc2)NC(=O)[C@H](Cc2c[nH]cn2)NC(=O)[C@@H](NC(=O)[C@H](CC(=O)O)NC(=O)CC(C)C)[C@@H](C)O)CSSC[C@@H](C(=O)N[C@@H](CCCCN)C(N)=O)NC(=O)CNC(=O)[C@H](CCCCN)NC(=O)[C@H](CO)NC(=O)[C@H](CCCNC(=N)N)NC(=O)[C@@H]2CCCN2C(=O)[C@H](CCCCNC(=O)CC[C@H](NC(=O)CC(C)C)C(=O)O)NC(=O)[C@H](Cc2ccccc2)NC(=O)[C@H](CCCCN)NC1=O` [Compound 15] is 1.9-fold higher in DC50: 14 nM for the first, 26 nM for the second.

Going from `CCCCCCCCCCCCCCCC(=O)NCCCCCC(=O)NCCCC[C@@H]1NC(=O)[C@H](Cc2ccccc2)NC(=O)[C@H](CCCCN)NC(=O)[C@H]([C@@H](C)CC)NC(=O)[C@@H](NC(=O)[C@@H]2CCCN2C(=O)[C@H](Cc2ccccc2)NC(=O)[C@H](Cc2c[nH]cn2)NC(=O)[C@@H](NC(=O)[C@H](CC(=O)O)NC(=O)CC(C)C)[C@@H](C)O)CSSC[C@@H](C(=O)N[C@@H](CCCCN)C(N)=O)NC(=O)CNC(=O)[C@H](CCCCN)NC(=O)[C@H](CO)NC(=O)[C@H](CCCNC(=N)N)NC(=O)[C@@H]2CCCN2C1=O` [Compound 22] to `CCCCCCCCCCCCCCCC(=O)NCCOCCOCCC(=O)NCCCC[C@@H]1NC(=O)[C@H](Cc2ccccc2)NC(=O)[C@H](CCCCN)NC(=O)[C@H]([C@@H](C)CC)NC(=O)[C@@H](NC(=O)[C@@H]2CCCN2C(=O)[C@H](Cc2ccccc2)NC(=O)[C@H](Cc2c[nH]cn2)NC(=O)[C@@H](NC(=O)[C@H](CC(=O)O)NC(=O)CC(C)C)[C@@H](C)O)CSSC[C@@H](C(=O)N[C@@H](CCCCN)C(N)=O)NC(=O)CNC(=O)[C@H](CCCCN)NC(=O)[C@H](CO)NC(=O)[C@H](CCCNC(=N)N)NC(=O)[C@@H]2CCCN2C1=O` [Compound 16], the DC50 rises from 18 nM to 36 nM (2-fold).

First: CCCCCCCCCCCCCCCC(=O)N[C@@H](CCC(=O)NCCCC[C@@H]1NC(=O)[C@H](Cc2ccccc2)NC(=O)[C@H](CCCCN)NC(=O)[C@H]([C@@H](C)CC)NC(=O)[C@@H](NC(=O)[C@@H]2CCCN2C(=O)[C@@H](NC(=O)[C@H](Cc2c[nH]cn2)NC(=O)[C@@H](NC(=O)[C@H](CC(=O)O)NC(=O)CC(C)C)[C@@H](C)O)C(c2ccccc2)c2ccccc2)CSSC[C@@H](C(=O)N[C@@H](CCCCN)C(N)=O)NC(=O)CN(C)C(=O)[C@H](CCCCN)NC(=O)[C@H](CO)NC(=O)[C@H](CCCNC(=N)N)NC(=O)[C@@H]2CCCN2C1=O)C(=O)O [Compound 8, Isovaleric acid-DTH-[Dpa]-PCIKF-[Lys(IsoGlu-Palm)]-PRSK-[Sar]-CK-NH2]
Second: CCCCCCCCCCCCCCCC(=O)NCCCCCC(=O)NCCCC[C@@H]1NC(=O)[C@H]([C@@H](C)CC)NC(=O)[C@@H](NC(=O)[C@@H]2CCCN2C(=O)[C@H](Cc2ccccc2)NC(=O)[C@H](Cc2c[nH]cn2)NC(=O)[C@@H](NC(=O)[C@H](CC(=O)O)NC(=O)CC(C)C)[C@@H](C)O)CSSC[C@@H](C(=O)N[C@@H](CCCCN)C(N)=O)NC(=O)CN(C)C(=O)[C@H](CCCCN)NC(=O)[C@H](CO)NC(=O)[C@H](CCCNC(=N)N)NC(=O)[C@@H]2CCCN2C(=O)[C@H](CCC(=O)O)NC(=O)[C@H](Cc2ccccc2)NC1=O [Compound 23, Isovaleric acid-DTHFPCI-[Lys(Ahx-Palm)]-FEPRSK-[Sar]-CK-NH2]
The DC50 of the first is 2.5-fold higher: 15 nM for the first, 6 nM for the second.

Same assay, conditions: Table 9 reference compounds; read-out: Potency EC50

Compound `CC[C@@H](C)[C@@H](NC(=O)[C@H](N)Cc1ccccc1)C(=O)N[C@H](CS)C(=O)N[C@@H](C(=O)N1CCC[C@@H]1C(=O)N[C@H](Cc1ccccc1)C(=O)N[C@H](Cc1c[nH]cn1)C(=O)N[C@@H](C(=O)N[C@H](CC(=O)O)C(N)=O)[C@H](C)O)[C@H](C)CC` [RI-Mini Hepcidin, Hy-DPhe-DIle-DCys-DIle-DPro-DPhe-DHis-DThr-DAsp-NH2, reference compound] has a DC50 of over 10000 nM.
